Experiment [1] addresses T1, Tyk2 JH2 Pseudokinase (Homo sapiens, UniProt P29597).
T1 construct: purchased Eurofins DiscoverX Corporation (CRO); host or cells: E. coli BL21-derived (T7 phage) or HEK-293
Kind of experiment: KdELECT Competition Binding Assay. The note with it: 11-point 3-fold dilution series, qPCR readout. How it is done:
The KdELECT Competition Binding Assay is performed by a CRO, Eurofins DiscoverX Corporation following the established standard protocol (DiscoverX, San Diego, Calif.). Briefly, Kinase-tagged T7 phage strains were prepared in an E. coli host derived from the BL21 strain. E. coli were grown to log-phase and infected with T7 phage and incubated with shaking at 32° C. until lysis. The lysates were centrifuged and filtered to remove cell debris. The remaining kinases were produced in HEK-293 cells and subsequently tagged with DNA for qPCR detection. Streptavidin-coated magnetic beads were treated with biotinylated small molecule ligands for 30 minutes at room temperature to generate affinity resins for kinase assays. The liganded beads were blocked with excess biotin and washed with blocking buffer (SeaBlock (Pierce), 1% BSA, 0.05% Tween 20, 1 mM DTT) to remove unbound ligand and to reduce nonspecific binding. Binding reactions were assembled by combining kinases, liganded affinity beads, and test compounds in 1× binding buffer (20% SeaBlock, 0.17×PBS, 0.05% Tween 20, 6 mM DTT). Test compounds were prepared as 111-fold stocks in 100% DMSO. Kds were determined using an 11-point 3-fold compound dilution series with three DMSO control points. All compounds for Kd measurements are distributed by acoustic transfer (non-contact dispensing) in 100% DMSO. The compounds were then diluted directly into the assays such that the final concentration of DMSO was 0.9%. All reactions performed in polypropylene 384-well plate. Each was a final volume of 0.02 mL. The assay plates were incubated at room temperature with shaking for 1 hour and the affinity beads were washed with wash buffer (1×PBS, 0.05% Tween 20). The beads were then re-suspended in elution buffer (1×PBS, 0.05% Tween 20, 0.5 μM non-biotinylated affinity ligand) and incubated at room temperature with shaking for 30 minutes. The kinase concentration in the eluates was measured by quantitative PCR.
Compound Handling: An 11-point 3-fold serial dilution of each test compound was prepared in 100% DMSO at 100-fold final test concentration and subsequently diluted to 1-fold in the assay (final DMSO concentration=1%). Most Kds were determined using a compound top concentration=30,000 nM. If the initial Kd determined was <0.5 nM (the lowest concentration tested), the measurement was repeated with a serial dilution starting at a lower top concentration.
(Real-time PCR tracks product formation cycle by cycle.)

Experiment [2] deals with Tyk2-mediated, IL23-induced STAT3 phosphorylation in human Kit225 T cell line. Kind of experiment: IL-23_Kit225 T Cell Assay (phosphorylated-STAT3, AlphaLISA). To be noted: Kit225 cells, compound 1 hour, human recombinant IL-23 20 minutes, pSTAT3. The experiment is classed as cell-based. As for the experimental part:
(§1) Kit225 cells (licensed from Professor Toshiyuki Hori, Ritsumeikan University, Japan) were seeded in 384-well plate at a density of 1×10^5 cells/well in 4 μL Hank's Balanced Salt Solution (HBSS, Gibco), and incubated for 2 hours in a humidified, 5% CO2 cell culture incubator at 37° C. The cells were treated with serial diluted compounds for 1 hour and stimulated with human recombinant IL-23 (R&D Systems) for 20 minutes. The treated cells were then lysed and cellular phosphorylated-STAT3 levels were measured by AlphaLISA (PerkinElmer) according to the manufacture's instructions. Inhibition data were calculated by comparison to vehicle control wells for 0% inhibition and non-stimulated control wells for 100% inhibition. Dose response curves were then generated to determine the concentration required to suppress 50% of cellular response (IC50) as derived by non-linear regression analysis using GraphPad Prism.
For orientation: In Alpha technology, singlet oxygen from a donor bead excites a nearby acceptor bead.

The subject of experiment [3] is Tyk2-mediated, IFNα-induced STAT1 phosphorylation in human Kit225 T cell line. Kind of experiment: IFNα_Kit225 T Cell Assay (phosphorylated-STAT1, AlphaLISA). The experiment is classed as cell-based. The note with it: Kit225 cells, compound 1 hour, human recombinant IFNα 20 minutes, pSTAT1; read-out: IFN-α Kit225 (IC50). As for the experimental part: as §1, with “cells” for “cells (licensed from Professor Toshiyuki Hori, Ritsumeikan University, Japan)”, “0.5×10^5” for “1×10^5”, “HBSS,” for “Hank's Balanced Salt Solution (HBSS, Gibco),”, “IFNα (Biolegend)” for “IL-23 (R&D Systems)”, “phosphorylated-STAT1” for “phosphorylated-STAT3”, “manufacturer's” for “manufacture's”

The test system of experiment [4] is IL-12/IL-23 and Type I IFN pathways. To be noted: Tokarski et al. 2015; cited from earlier work.
Experiment [5] relates to experimental autoimmune disease models (psoriasis, SLE, and IBD). The note with it: cited from earlier work.

T1 sequence (P29597 589-875 limits assumed): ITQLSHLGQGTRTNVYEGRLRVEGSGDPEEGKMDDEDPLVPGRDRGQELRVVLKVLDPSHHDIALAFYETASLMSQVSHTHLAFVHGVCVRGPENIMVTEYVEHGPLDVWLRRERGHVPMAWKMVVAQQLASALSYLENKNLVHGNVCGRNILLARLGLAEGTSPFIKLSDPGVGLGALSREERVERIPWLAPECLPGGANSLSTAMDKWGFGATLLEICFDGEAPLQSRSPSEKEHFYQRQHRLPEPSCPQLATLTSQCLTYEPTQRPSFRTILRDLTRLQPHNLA

By Kd is commonly meant the equilibrium constant for the complex coming apart. Low values mean tighter binding, high ones weaker binding. For orientation: IC50 means the concentration needed to halve the response being measured. As to `[2H]C([2H])([2H])NC(=O)c1nnc(NC(=O)C2CC2)cc1Nc1cc(N2CC(OC)C2)cc(-c2ncn(C)n2)c1OC` [Example A1, 6-(cyclopropanecarboxamido)-4-((2-methoxy-5-(3-methoxyazetidin-1-yl)-3-(1-methyl-1H-1,2,4-triazol-3-yl)phenyl)amino)-N-(methyl-d3)pyridazine-3-carboxamide], in experiment [1], the Kd amounted to 0.0035 nM. Further, the IC50 was 57 nM in experiment [2] and 43 nM in experiment [3].

Consider `CNC(=O)c1nnc(NC(=O)C2CC2)cc1Nc1cc(N2CC(OC)C2)cc(-c2ncn(C)n2)c1OC` [Example A2, 6-(cyclopropanecarboxamido)-4-((2-methoxy-5-(3-methoxyazetidin-1-yl)-3-(1-methyl-1H-1,2,4-triazol-3-yl)phenyl)amino)-N-methylpyridazine-3-carboxamide], for which, in experiment [1], the dissociation constant Kd amounted to 0.004 nM. Moreover, the values for the IC50 in experiment [2] and in experiment [3] were 88 nM and 50 nM, respectively.

Turning to `[2H]C([2H])([2H])NC(=O)c1nnc(NC(=O)C2CC2)cc1Nc1cc(N2CCC2=O)cc(-c2ncn(C)n2)c1OC` [Example A3, 6-(cyclopropanecarboxamido)-4-((2-methoxy-3-(1-methyl-1H-1,2,4-triazol-3-yl)-5-(2-oxoazetidin-1-yl)phenyl)amino)-N-(methyl-d3)pyridazine-3-carboxamide], the affinity in experiment [1], expressed as Kd, was 0.0071 nM. Also, the figures for the IC50 in experiment [2] and in experiment [3] were 9.7 nM and 7.5 nM, respectively.

In experiment [1], `[2H]C([2H])([2H])NC(=O)c1nnc(NC(=O)C2CC2)cc1Nc1cc(OC2COC2)cc(-c2ncn(C)n2)c1OC` [Example A4, 6-(cyclopropanecarboxamido)-4-((2-methoxy-3-(1-methyl-1H-1,2,4-triazol-3-yl)-5-(oxetan-3-yloxy)phenyl)amino)-N-(methyl-d3)pyridazine-3-carboxamide] showed a Kd of 0.037 nM. Also, the results for the half-maximal inhibitory concentration (IC50) in experiment [2] and in experiment [3] were 130 nM and 410 nM, respectively.

Take BMS986165: the “block of IL-12/IL-23 and Type I IFN pathways” value in experiment [4] is given as “effectively block”. Besides, the “in vivo efficacy in experimental autoimmune disease models” value in experiment [5] is “substantial in vivo efficacy”.
